Assay results as given in patent US7256042B2, “Process for making hepatocytes from pluripotent stem cells” (Geron Corporation, priority 2000, dated 2007).
Like-named read-outs stand apart in the source and are kept apart here.

Columns and labels:
hES cells = experiment: Direct differentiation Protocol 7, cell morphology (FIG. 5); type: cell-based, human; conditions: 4 days in SR medium containing butyrate
Experimental: hES cells undergo the Direct Differentiation protocol detailed earlier, making the adjustments to culture conditions shown in Table 12. Hepatocyte Culture Medium is purchased from Clonetics; Strom's Medium is prepared as described in Runge et al., Biochem. Biophys. Res. Commun. 265:376, 1999. The cell populations obtained are assessed by immunocytochemistry and enzyme activity.
Left column: 10×magnification; Right column: 40×magnification. By 4 days in the presence of butyrate, more than 80% of cells in the culture are large in diameter, containing large nuclei and granular cytoplasm (Row A). After 5 days in SR medium, the cells were switched to HCM. Two days later, many cells are multinucleated, and have a large polygonal shape (Row B). By 4 days in HCM, multinucleated polygonal cells are common, and have a darker cytosol (Row C), by which criteria they resemble freshly isolated human adult hepatocytes (Row D) or fetal hepatocytes (Row E).

[1] = tested on: EBs generated from hES cells; conditions: 20% FBS + 5 mM Na-butyrate, with or without 1% DMSO, 6 days
Experimental: (§1) The fixed cells were rinsed with PBS twice and blocked for 1 hour in 10% goat serum in PBS. They were then incubated in primary antibody diluted in 10% goat serum and PBS for 2 h. Antibody to albumin, alpha fetoprotein (AFP) (Sigma) and α1-antitrypsin (OEB Biosciences Inc.) were diluted at 1:500, cytokeratin, 8, 18 and 19, desmin, (Neomarkers), vimentin (Dako) and SMA (Sigma) were diluted at 1:200. Cells were then washed 3 times with PBS and incubated in secondary antibody, which was FITC-conjugated anti-mouse IgG diluted 1:100 and Hoechst HH33258 (Sigma) at 1:1000 in 5% goat serum in PBS, and incubated for 1 h. The stained cells were then washed 3 times in PBS, and mounted in Vectashield™ (Vector Labs). Images were taken at 10× and 40× using a Nikon Labophot™ equipped with epifluorescence and a spot CCD camera.
EBs were generated from hES cells in feeder-free conditions. After 4 days in suspension, the EBs were plated in 20% FBS medium supplemented with 5 mM Na-butyrate or 5 mM Na-butyrate and 1% DMSO. The EBs were plated on the following matrices: • 1. collagen I (0.03 mg/mL coated overnight at 37° C.) • 2. growth factor reduced Matrigel® (1:10, coated for 1 h at room temp) • 3. gelatin (1% coated for 2 h at 37° C.)
After 6 days in Na-butyrate the cells were evaluated morphologically and using immunocytochemistry for hepatocyte markers.

[2] = tested on: hES cell derived embryoid body cells; experiment: Immunocytochemistry of embryoid body cells cultured 4 days after plating (Example 1)
Experimental: Confluent monolayer cultures of hES cells on or off feeder cells were harvested by incubating in collagenase for 15-20 min, following which the cells are scraped from the plate. The cells were then dissociated into clusters and plated in non-adherent cell culture plates (Costar) in a medium composed of 80% KO DMEM (Gibco) and 20% non-heat-inactivated FBS (Hyclone), supplemented with 1% non-essential amino acids, 1 mM glutamine, 0.1 mM β-mercaptoethanol. The cells were seeded at a 1:2 ratio in 2 mL medium per well (6 well plate). The EBs were fed every other day by the addition of 2 mL of medium per well. When the volume of medium exceeded 4 mL/well, the EBs were collected and resuspended in fresh medium. After 4-8 days in suspension, the EBs were plated onto a substrate and allowed to differentiate further.
as §1
Embryoid bodies (EB) were prepared as described in the preceding section. After 5 days in suspension culture, they were harvested and plated on Growth Factor Reduced Matrigel® coated plates and in chamber slides (Nunc). One of the following three conditions was used in parallel: • medium containing 20% fetal bovine serum (FBS); • medium containing 20% FBS and 5 mM sodium butyrate (Sigma); • medium containing 20% FBS, 0.5% DMSO (ATCC), 4 μM dexamethazone (Sigma), 150 ng/ml insulin, 10 ng/ml EGF, 600 nM glucagon (Sigma). In each case, the medium was exchanged every day, and cells were fixed for immunocytochemistry on day 4 after plating.

[3] = tested on: hES cell derived embryoid bodies; experiment: Comparison of potential hepatocyte differentiation agents; type: cell-based, human; conditions: concentration of 5 mM, 6 days
Experimental: The effect of sodium butyrate was compared with other potential hepatocyte differentiation agents in a similar protocol. Embryoid bodies were cultured in suspension for 4 days, and then replated on plates coated with collagenase 1. The cells were then cultured in the presence of each compound for 6 days.

[4] = tested on: undifferentiated hES cells; experiment: Direct differentiation of hES cells without embryoid bodies, immunocytochemistry (Example 7); type: cell-based, human; conditions: 1% DMSO 4 days, then 2.5% Na-butyrate 6 days
From the text: The undifferentiated hES cells were maintained in feeder-free conditions (on Matrigel® in MEF-CM). The strategy was to initiate a global differentiation process by adding the hepatocyte maturation factors DMSO or retanoic acid (RA) to a subconfluent culture. The cells are then induced to form hepatocyte-like cells by the addition of Na-butyrate.
The hES cells were maintained in undifferentiated culture conditions for 2-3 days after splitting. At this time, the cells were 50-60% confluent and the medium was exchanged with unconditioned SR medium containing 1% DMSO. The cultures were fed daily with SR medium for 4 days and then exchanged into unconditioned SR medium containing 2.5% Na-butyrate. The cultures were fed daily with this medium for 6 days; at which time one half of the cultures were evaluated by immunocytochemistry. The other half of the cultures were harvested with trypsin and replated onto collagen, to further promote enrichment for hepatocyte lineage cells. Immunocytochemistry was then performed on the following day.

[5] = tested on: hES cell derived embryoid bodies; experiment: Phenotype of embryoid body cells after 6 days with n-butyrate: immunocytochemistry, glycogen (PAS), BrdU (Example 2); type: cell-based, human; conditions: EBs on Matrigel, 20% FBS + 5 mM sodium n-butyrate
Experimental: Cells were grown on chamber slides in the indicated growth medium, and labeled with 10 μM BrdU for 24 h. Cells were then fixed with 3:1 methanol: acetic acid for 30 minutes, and air-dried overnight in the dark. The fixed cells were rinsed once in PBS, and denatured in 0.07 N NaOH for 2 min followed by quick rinses in PBS pH 8.5 and pH7.4 several times. They were then blocked using 1.5% goat serum (Vector Labs) for 15 min, and incubated with anti BrdU antibody (Sigma) diluted 1:500 in 1.5% goat serum and 0.05% Tween™ 20 for 2 h. The samples were washed thrice in PBS, and then incubated with secondary antibody, which was biotinylated goat anti-mouse immunoglobulin (Vector Labs), at 10 μg/mL diluted in 1.5% horse serum for 30 min. […] Hoechst HO33258 stain (bisbenzimide, Sigma Cat. No. B2883) was mixed into the streptavidin solution at 2.5uM final concentration to stain all the nuclei.
The medium was changed daily or every other day. There was a lot of cell death on day 1 followed by less cell death on the subsequent days.
On the sixth day after plating in the differentiation agent, the cells were analyzed for expression of markers by RT-PCR and immunocytochemistry, following the procedures outlined earlier. Glycogen content in these cells was determined using periodic acid Schiff stain. The number of cells in S phase of cell cycle was determined by incubating the cells with 10 μM BrdU on day 5 after plating, and subsequently staining with anti-BrdU antibody 24 hours later.

[6] = EBs on Growth Factor Reduced Matrigel, day 4, 20% FBS + 5 mM sodium butyrate, or 20% FBS + 0.5% DMSO + dexamethazone, insulin, EGF, glucagon
[7] = Trypsinization and replating onto collagen, stained the following day

## CCCC(=O)[O-].[Na+] [Sodium n-butyrate]
hES cells; listed as butyrate
  Cells large in diameter, containing large nuclei and granular cytoplasm: more than 80%
hES cells; listed as sodium n-butyrate
  Cells large in diameter, containing large nuclei and granular cytoplasm: More than 80%
[1]; Collagen I
  Cytokeratin 18, percentage of cells positive: 100%
  Cytokeratin 19, percentage of cells positive: 100%
  Glycogen, percentage of cells positive: >60%
  albumin, percentage of cells positive: 79%
  α1-antitrypsin, percentage of cells positive: >90%
  α-fetoprotein, percentage of cells positive: 0
[1]; Gelatin
  Cytokeratin 18, percentage of cells positive: 100%
  Cytokeratin 19, percentage of cells positive: 100%
  Glycogen, percentage of cells positive: >60%
  albumin, percentage of cells positive: 50%
  α1-antitrypsin, percentage of cells positive: >90%
  α-fetoprotein, percentage of cells positive: 0
[1]; Matrigel
  Cytokeratin 18, percentage of cells positive: 100%
  Cytokeratin 19, percentage of cells positive: 100%
  Glycogen, percentage of cells positive: >60%
  albumin, percentage of cells positive: 56%
  α1-antitrypsin, percentage of cells positive: >90%
  α-fetoprotein, percentage of cells positive: 0
[2]; 20% FBS + 5 mM sodium butyrate, 1 day after plating
  Cell survival and morphology (in words): fairly homogenous population of cells survived
[2]; [6]
  AFP, cells showing positive staining: did not express AFP
  Albumin, percentage of cells showing positive staining: about 30%
  CK8, percentage of cells showing positive staining: 100% + ve
  CK18, percentage of cells showing positive staining: 100% + ve
  CK19, percentage of cells showing positive staining: 100% + ve
  SMA, percentage of cells showing positive staining: <1% + ve
  Vimentin, percentage of cells showing positive staining: 100% + ve
  α1-antitrypsin, percentage of cells showing positive staining: >60% + ve
[2]; EBs on Growth Factor Reduced Matrigel, day 4, 20% FBS + 5 mM sodium butyrate, or 20% FBS + 0.5% DMSO + dexamethazone, insulin, EGF, glucagon, listed as Na butyrate
  Albumin, percentage of cells showing positive staining: 30% + ve*
[2]; first day of culture with the differentiation agent
  Cultured embryoid body derived cells released from the substrate into the medium: about 90%
[3]
  Effect on hepatocyte differentiation (in words): equally effective
[4]; No trypsinization
  Cytokeratin 8, % positive: >80%
  Cytokeratin 18, % positive: >80%
  Cytokeratin 19, % positive: >80%
  albumin, % positive: 11%
  glycogen, % positive: 0%
  α1-antitrypsin, % positive: >80%
  α-fetoprotein, % positive: 0%
[4]; [7]
  Cytokeratin 8, % positive: 45%
  Cytokeratin 18, % positive: 30%
  Cytokeratin 19, % positive: 30%
  albumin, % positive: 63%
  glycogen, % positive: >50%
  α1-antitrypsin, % positive: >80%
  α-fetoprotein, % positive: 0%
[5]; day 6
  Albumin, % positive cells: 55%
  CK8, % positive cells: 100%
  CK18, % positive cells: 100%
  CK19, % positive cells: 100%
  Desmin, % positive cells: 0%
  Glycogen staining (Periodic Acid Schiff), % positive cells: 60%
  α1-antitrypsin, % positive cells: 90%
  α-fetoprotein, % positive cells: 0%
[5]; 10 μM BrdU on day 5, stained 24 hours later
  BrdU staining, % positive cells: 16%
